Results from patent publication US7371874B2, “6-Alkylamino-2-methyl-2′-(N-methyl substituted sulfonamido)methyl-2H-1-benzopyran derivative as anti-inflammatory inhibitor” (Korea Research Institute of Chemical Technology, priority 2005, dated 2008).

Tests used:
[1] = system: Mouse ear edema; assay: In vivo bioassay (mouse ear edema model, arachidonic acid); set-up: species or system ICR mouse; settings: oral in 0.5% methylcellulose 1 hour before arachidonic acid, compared with control; for Mouse ear edema model (in vivo assay): Thickness: ear thickness after 1 hour; for Mouse ear edema model (in vivo assay): MPO: myeloperoxidase activity of ear tissue
Description: 3. In Vivo Bioassay (Mouse Ear Edema Model)
The inside of the right ear of an ICR mouse (6 weeks old) was treated with 2 mg of arachidonic acid dissolved in 20 μL of acetone for 1 hour to induce an inflammation.
After 1 hour, the difference of thickness T (%) between the arachidonic acid-treated right ear and the non-treated left ear was measured with a microgauge.
Further, myeloperoxidase (MPO) activity was measured in order to measure the amount of neutrophil penetrated into the tissue as a primary marker for induced inflammation. The tissue obtained from the arachidonic acid-treated right ear was homogenized in a 50 mM phosphate buffer solution (pH 6.0) containing 0.5% hexadecyltrimethylammonium bromide (HTAB), centrifuged and then the MPO activity (MPO %) of the supernatant was measured.
To measure in vivo activity of each test compound, each compound was dissolved in 0.5% methylcellulose (10 mL/kg) and orally administered to a mouse 1 hour before treatment with arachidonic acid. Then, arachidonic acid was treated for 1 hour and the thickness of ear and MPO activity were measured. In vivo activity of each test compound was estimated by comparing the test result with that of a control which was treated only with arachidonic acid, without the test compound.

[2] = biological target: T1, 5-LO (Homo sapiens, UniProt P09917); assay: 5-Lipoxygenase enzyme assay, bioassay using FOX reagent; type: biochemical; settings: test compound 1 μM; lysate from 5-LO expressed insect cells; arachidonic acid 40 μM
T1 construct: made in house; host or cells: insect cells (crude lysate)
T1 sequence (P09917 1-674): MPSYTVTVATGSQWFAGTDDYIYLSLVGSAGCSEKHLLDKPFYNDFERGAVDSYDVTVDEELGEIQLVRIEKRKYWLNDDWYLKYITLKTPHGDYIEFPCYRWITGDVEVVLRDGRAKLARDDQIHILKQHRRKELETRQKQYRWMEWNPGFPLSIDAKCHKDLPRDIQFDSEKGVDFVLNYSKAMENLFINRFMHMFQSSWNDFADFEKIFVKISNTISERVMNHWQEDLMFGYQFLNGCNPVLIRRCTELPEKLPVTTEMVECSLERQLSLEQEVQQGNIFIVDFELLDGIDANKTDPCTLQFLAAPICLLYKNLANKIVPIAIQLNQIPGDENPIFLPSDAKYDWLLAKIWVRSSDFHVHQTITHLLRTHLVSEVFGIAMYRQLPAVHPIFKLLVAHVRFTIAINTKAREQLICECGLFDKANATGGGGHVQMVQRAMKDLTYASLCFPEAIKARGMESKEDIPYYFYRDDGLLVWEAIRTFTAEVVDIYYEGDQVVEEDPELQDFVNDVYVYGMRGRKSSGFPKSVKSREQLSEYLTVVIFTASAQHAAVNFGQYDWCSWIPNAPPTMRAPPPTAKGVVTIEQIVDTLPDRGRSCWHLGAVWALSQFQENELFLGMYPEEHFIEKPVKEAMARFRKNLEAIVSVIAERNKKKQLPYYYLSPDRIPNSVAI
Description: 1. 5-Lipoxygenase enzyme assay
1) Bioassay Using FOX Reagent
Each test compound (final concentration=1 μM) was added to a lysate (7 μg) obtained from 5-LO expressed insect cells and reaction was performed at room temperature for 3 minutes. Then, arachidonic acid (40 μM) was added as enzyme substrate and reaction was further performed at room temperature for 4 minutes. 100 μL of a FOX reagent (sulfuric acid 25 mM, xylenol orange 100 μM, FeSO4 100 μM, methanol/water=9:1) was added thereto and then, after 5 minutes, absorbance was measured at 575 nm.

[3] = system: LTB4 in Rat basophilic leukemia (RBL-1) cells; assay: LTB4 cell-based assay (RBL-1 cells, A23187, ELISA); settings: A23187 10 μM, LTB4 by ELISA
Description: Rat basophilic leukemia (RBL-1) cells were inoculated at a 24-well plate to a final concentration of 7.5×10^5 cells/well and incubated for 2 hours, so that they adhered to the bottom of the plate. […] The well plate was centrifuged at 1,500 g for 20 minutes to isolate the supernatant and then the amount of LTB4 of the supernatant was measured with ELISA analysis.

Row | Structure (SMILES) | Mouse ear edema model (in vivo assay): Thickness [1] | Mouse ear edema model (in vivo assay): MPO [1] | 5-LO enzyme assay (% inhibition, at 1 μM) [2] | Cell-based assay (% inhibition, at 1 μM) [3] | inhibition at 1 µM [2]
1 | CC(c1cc2ccccc2s1)N(O)C(N)=O (centres unmarked) [reference compound] | 67% | 38% |  |  | 
2 | CN(CC1(C)C=Cc2cc(NCc3ccc(F)cc3)ccc2O1)S(=O)(=O)c1ccccc1 (centres unmarked) [1-1-10] | Thickness 60% | MPO 27% | 87% | 81% | 
3 | CN(CC1(C)C=Cc2cc(NCc3ccc(C#N)cc3)ccc2O1)S(=O)(=O)c1ccccc1 (centres unmarked) [1-1-7] |  |  | 80% | 71% | 
4 | CN(CC1(C)C=Cc2cc(NCc3ccsc3)ccc2O1)S(=O)(=O)c1ccc(C(C)(C)C)cc1 (centres unmarked) [1-1-132] |  |  | 47% | 35% | 
5 | CCCS(=O)(=O)N(C)CC1(C)C=Cc2cc(NCc3ccc(OC)cc3)ccc2O1 (centres unmarked) [1-1-298] |  |  | 73% | 47% | 
6 | CCOC(OCC)c1ccc(CNc2ccc3c(c2)C=CC(C)(CN(C)S(=O)(=O)c2ccc(C)cc2)O3)cc1 (centres unmarked) [1-1-103] |  |  | 63% | 52% | 
7 | COc1ccc(CNc2ccc3c(c2)C=CC(C)(CN(C)S(=O)(=O)c2ccc(F)cc2)O3)cc1 (centres unmarked) [1-1-244] |  |  | 67% | 41% | 
8 | CN(CC1(C)C=Cc2cc(NCc3ccncc3)ccc2O1)S(=O)(=O)Cc1ccccc1 (centres unmarked) [1-1-183] |  |  |  |  | 45%
9 | COc1ccc(CNc2ccc3c(c2)C=CC(C)(CN(C)S(=O)(=O)c2ccccc2)O3)cc1 (centres unmarked) [1-1-1] | Thickness 62% | MPO 34% | 86% | 82% | 
10 | Cc1cc2c(cc1NCc1ccc(C#N)cc1)C=CC(C)(CN(C)S(=O)(=O)c1ccccc1)O2 (centres unmarked) [1-2-7] |  |  | 79% | 61% | 
11 | CN(CC1(C)C=Cc2cc(NCc3cccc(F)c3)ccc2O1)S(=O)(=O)c1ccccc1 (centres unmarked) [1-1-11] |  |  | 73% | 58% | 
12 | COc1ccc(CNc2ccc3c(c2)C=CC(C)(CN(C)S(=O)(=O)Cc2ccccc2)O3)cc1 (centres unmarked) [1-1-163] |  |  | 61% | 43% | 
13 | COc1ccc(CNc2ccc3c(c2)C=CC(C)(CN(C)S(=O)(=O)c2ccc(Cl)cc2)O3)cc1 (centres unmarked) [1-1-217] |  |  | 70% | 56% | 
14 | Cc1cc2c(cc1NCc1cccs1)C=CC(C)(CN(C)S(=O)(=O)c1ccccc1)O2 (centres unmarked) [1-2-23] |  |  | 80% | 74% | 
15 | Cc1ccc(CNc2ccc3c(c2)C=CC(C)(CN(C)S(=O)(=O)c2ccc(F)cc2)O3)s1 (centres unmarked) [1-1-256] |  |  | 79% | 63% | 
16 | CN(CC1(C)C=Cc2cc(NCc3ccsc3)ccc2O1)S(=O)(=O)c1ccccc1 (centres unmarked) [1-1-24] |  |  |  |  | 44%
17 | COc1ccc(S(=O)(=O)N(C)CC2(C)C=Cc3cc(NCc4ccsc4)ccc3O2)cc1 (centres unmarked) [1-1-51] |  |  | 48% | 36% | 
18 | COc1ccc(S(=O)(=O)N(C)CC2(C)C=Cc3cc(NCc4ccc(C)s4)ccc3O2)cc1 (centres unmarked) [1-1-40] |  |  | 45% | 38% | 
